Reference: patent US20210261642A1, “SOLUBILITY OF GLP-1 PEPTIDE” (Novo Nordisk A/S, priority 2017, published 2021)

Assay: Assay (I): Determination of Solubility (96-well plate, pH 3.0-11.0, organic solvent 0-70% w/w, UV absorption at 280 nm)
Assay type: physicochemical
Conditions: Method 1
Experimental: Assay (I): Determination of Solubility
96-Well Plate Preparation
96-well plates containing target peptide in a solid form were prepared in one of two ways:
Method 1 (evaporation): Addition of 100 μl stock solution of said peptide at a concentration of 4-6 mg/ml to each well of a 96-well half area plate (150 μl well size). Subsequently the solvent was evaporated by applying a vacuum until the solvent was completely removed.
Method 2 (precipitation): Addition of a certain volume of a stock solution of said peptide containing to each well of a 96-well half area plate followed by the addition of a certain volume of concentrated phosphoric acid to obtain a pH of 4.6 followed by addition of a certain volume of ethanol resulting in a final ethanol concentration of 20% v/v. Subsequently the plate was stored at 4° C. for 1 h and then centrifuged at 4,000 rpm for 20 min. Finally the supernatant was removed. The concentration of the stock solution was chosen in a way that the final amount of peptide after supernatant removal was >0.4 mg per well.
In both cases the stock solution was prepared by adding de-ionized water to a certain amount of powder of said peptide followed by a stepwise addition of small amounts of a concentrated sodium hydroxide solution until said peptide was completely in solution.
To determine solubility of a target peptide at different pH and organic solvent concentrations, two different buffer systems were used in independent experiments to cover the whole range from pH 3.0 to pH 11.0. Buffer system 1 covers pH 3.0-7.5 and buffer system 2 covers pH 7.5-11.0. For each buffer system 96 different solvent compositions were premixed in the following way: • 1. A low pH buffer (adjusted to either pH 3.0 or pH 7.5) and a high pH buffer (adjusted to either pH 7.5 or pH 11.0) were mixed at 8 different ratios to obtain values between pH 3.0 and pH 7.5 or pH 7.5 and pH 11.0, respectively. The total volume after mixing was 300 μl. • 2. 12 different amounts of organic solvent were then added to these buffers to obtain organic solvent (e.g. ethanol) concentrations between 0 and 70% w/w. • 3. Water was then added to obtain a total weight of 1.0 g of solvent in each well.
After preparing the 96 different solvent systems, 100 μl of each system was transferred to the 96-well plate containing the solid form of the target peptide (prepared as described in the section “96-well plate preparation”). The plate was then stored at a given temperature (between 5° C. and 70° C.) for a given time on a rotating shaker set to 400 rpm. At regular time intervals the plate was centrifuged (4,000 rpm for 10 min) and a 10 μl sample was taken from each well. The samples were then analysed by UV absorption at 280 nm for peptide quantification. Peptide concentration results are given as UV absorption at 280 nm of the sample subtracted UV absorption at 280 nm of a well comprising 10 μl water.
The buffers used were as follows: • Buffer system 1 (for the pH range from pH 3.0-7.5)
• Buffer system 2 (for the pH ranae from pH 7.5-11.0)
Solubility of liraglutide was determined using Assay (I) described herein. Liraglutide was prepared using Method 1 (evaporation) or Method 2 (precipitation) as described in subsection “96-well plate preparation”.

## CCCCCCCCCCCCCCCC(=O)N[C@@H](CCC(=O)NCCCC[C@H](NC(=O)[C@H](C)NC(=O)[C@H](C)NC(=O)[C@H](CCC(N)=O)NC(=O)CNC(=O)[C@H](CCC(=O)O)NC(=O)[C@H](CC(C)C)NC(=O)[C@H](Cc1ccc(O)cc1)NC(=O)[C@H](CO)NC(=O)[C@H](CO)NC(=O)[C@@H](NC(=O)[C@H](CC(=O)O)NC(=O)[C@H](CO)NC(=O)[C@@H](NC(=O)[C@H](Cc1ccccc1)NC(=O)[C@@H](NC(=O)CNC(=O)[C@H](CCC(=O)O)NC(=O)[C@H](C)NC(=O)[C@@H](N)Cc1cnc[nH]1)[C@@H](C)O)[C@@H](C)O)C(C)C)C(=O)N[C@@H](CCC(=O)O)C(=O)N[C@@H](Cc1ccccc1)C(=O)N[C@H](C(=O)N[C@@H](C)C(=O)N[C@@H](Cc1c[nH]c2ccccc12)C(=O)N[C@@H](CC(C)C)C(=O)N[C@H](C(=O)N[C@@H](CCCNC(=N)N)C(=O)NCC(=O)N[C@@H](CCCNC(=N)N)C(=O)NCC(=O)O)C(C)C)[C@@H](C)CC)C(=O)O [liraglutide, Arg34,Lys26-(N-epsilon-(gamma-L-glutamyl(N-alfa-hexadecanoyl)))-GLP-1(7-37)]
MeCN 19.1% w/w, pH 8.5, 5° C.
  Peptide concentration after 5 min: 1.2 mg/mL
  Peptide concentration after 180 min: 2.5 mg/mL
  Peptide concentration after 24 h: >4.0 mg/mL
MeCN 19.1% w/w, pH 9.0, 5° C.
  Peptide concentration after 5 min: 0.9 mg/mL
  Peptide concentration after 180 min: 2.3 mg/mL
  Peptide concentration after 24 h: >4.0 mg/mL
MeCN 19.1% w/w, pH 9.5, 5° C.
  Peptide concentration after 5 min: 1.1 mg/mL
  Peptide concentration after 180 min: 3.3 mg/mL
  Peptide concentration after 24 h: >4.0 mg/mL
MeCN 19.1% w/w, pH 10.0, 5° C.
  Peptide concentration after 5 min: 1.4 mg/mL
  Peptide concentration after 180 min: 3.8 mg/mL
  Peptide concentration after 24 h: >4.0 mg/mL
MeCN 19.1% w/w, pH 10.5, 5° C.
  Peptide concentration after 5 min: 1.4 mg/mL
  Peptide concentration after 180 min: >4.0 mg/mL
  Peptide concentration after 24 h: >4.0 mg/mL
MeCN 19.1% w/w, pH 11.0, 5° C.
  Peptide concentration after 5 min: 1.0 mg/mL
  Peptide concentration after 180 min: 2.6 mg/mL
  Peptide concentration after 24 h: >4.0 mg/mL
MeCN 25.5% w/w, pH 8.0, 5° C.
  Peptide concentration after 5 min: 1.1 mg/mL
  Peptide concentration after 180 min: 3.2 mg/mL
  Peptide concentration after 24 h: >4.0 mg/mL
MeCN 25.5% w/w, pH 8.5, 5° C.
  Peptide concentration after 5 min: 1.4 mg/mL
  Peptide concentration after 180 min: 3.5 mg/mL
  Peptide concentration after 24 h: >4.0 mg/mL
MeCN 25.5% w/w, pH 9.0, 5° C.
  Peptide concentration after 5 min: 0.5 mg/mL
  Peptide concentration after 180 min: >4.0 mg/mL
  Peptide concentration after 24 h: >4.0 mg/mL
MeCN 25.5% w/w, pH 9.5, 5° C.
  Peptide concentration after 5 min: 1.2 mg/mL
  Peptide concentration after 180 min: >4.0 mg/mL
  Peptide concentration after 24 h: >4.0 mg/mL
MeCN 25.5% w/w, pH 10.0, 5° C.
  Peptide concentration after 5 min: 1.4 mg/mL
  Peptide concentration after 180 min: 3.4 mg/mL
  Peptide concentration after 24 h: >4.0 mg/mL
MeCN 25.5% w/w, pH 10.5, 5° C.
  Peptide concentration after 5 min: 1.5 mg/mL
  Peptide concentration after 180 min: 3.8 mg/mL
  Peptide concentration after 24 h: >4.0 mg/mL
MeCN 25.5% w/w, pH 11.0, 5° C.
  Peptide concentration after 5 min: 1.0 mg/mL
  Peptide concentration after 180 min: 3.1 mg/mL
  Peptide concentration after 24 h: >4.0 mg/mL
MeCN 31.8% w/w, pH 8.0, 5° C.
  Peptide concentration after 5 min: 0.9 mg/mL
  Peptide concentration after 180 min: 2.7 mg/mL
  Peptide concentration after 24 h: >4.0 mg/mL
MeCN 31.8% w/w, pH 8.5, 5° C.
  Peptide concentration after 5 min: 2.1 mg/mL
  Peptide concentration after 180 min: 3.6 mg/mL
  Peptide concentration after 24 h: >4.0 mg/mL
MeCN 31.8% w/w, pH 9.0, 5° C.
  Peptide concentration after 5 min: 0.8 mg/mL
  Peptide concentration after 180 min: 2.7 mg/mL
  Peptide concentration after 24 h: >4.0 mg/mL
MeCN 31.8% w/w, pH 9.5, 5° C.
  Peptide concentration after 5 min: 0.9 mg/mL
  Peptide concentration after 180 min: 3.3 mg/mL
  Peptide concentration after 24 h: >4.0 mg/mL
